The values that follow come from ChEMBL document CHEMBL5726285, “Tricyclic compounds as anticancer agents” (2017).

This experiment deals with Bromodomain-containing protein 4 (Homo sapiens, UniProt O60885). Briefly: Time Resolved Fluorescence Resonance Energy Transfer (TR-FRET) Assay: The binding of compounds to bromodomain BRD4 (44-168), BRD4 (333-460), and BRD4 (1-477 or 44-460) was assessed using a time resolved fluorescent resonance energy transfer binding assay (1), that measures the binding of a fluorescently labeled probe molecule to the bromodomain protein. The bromodomain protein, fluorescent probe molecule (either a biotinylated histone peptide or a fluorescently labeled small molecule), and dose-responded test compound are incubated together to reach thermodynamic equilibrium. In the absence of a test compound, the bromodomain and small molecule are bound, resulting in a high fluorescent signal. In the presence of a sufficient concentration of inhibitor, this intercation is disrupted resulting in a lost of fluorescent resonance energy transfer.All assay components were dissolved in buffer composition 20 mM Hepes pH 7.5, 150 mM NaCl, 5 mM DTT, 0.005% Tween 20, and 100 ug/ml BSA for BRD4 (1-477 and 44-460). The final concentrations of the bromodomain proteins are 1.6 nM BRD4(44-168), 1 nM BRD4(333-460), and 1 nM BRD4(1-477 or 44-460), and the fluorescent probe molecule is 100 nM, 50 nM, and 7.5 nM respectively. All proteins were biotinylated. A streptavidin labeled with terbium cryptate (Cisbio SA-Tb) was used as detection, and pre-mixed with the bromodomain protein at a final concentration of 0.2 nM. In some instances for BRD4 (44-460), anti-His terbium cryptate was used as a detection. 7.5 nl of dose-responded test compound or dmso vehicle (0.0375%) was pre-spotted in a black Corning 384 well plate and 10 ul each of bromodomain/detection reagent and fluorescent small molecule solution were added to the plate, and the reaction incubated for 60 min at room temperature. Plates were then read on EnVision plate reader, (λex=340 nm, acceptor λEm=520 nm, and donor λEm=615 nm, LANCE D400 mirror). Time resolved fluorescnce intensity measurements were made at both emissions, and the ratio of acceptor/donor was calculated and used for data analysis.
`COc1nnn(C)c1-c1cnc2c3c(OC)ncc(S(C)(=O)=O)c3n([C@H](c3ccccc3)C3CCOCC3)c2c1`: the IC50 (in general, the concentration that inhibits the measured activity by half) is less than 0.01 µM. Regarding `Cc1nnn(C)c1-c1cnc2c3c(N(C)C(C)C)ncc(S(C)(=O)=O)c3n(C(c3ccccc3)C3CCC(F)(F)CC3)c2c1` (stereo not drawn), the IC50 is less than 0.01 µM. In the case of `Cc1nnn(C)c1-c1cnc2c3ccc(N4CCN(C)CC4)nc3n(C(c3ccccc3)C3CCC(F)(F)CC3)c2c1` (stereo not drawn) it was less than 0.001 µM. Regarding `Cc1nnn(C)c1-c1cnc2c3c(OC(C)C)ncc(S(C)(=O)=O)c3n(C(c3ccccc3)C3CCC(F)(F)CC3)c2c1` (stereo not drawn), the IC50 was less than 0.01 µM. In the case of `COC1CN(c2ncc(S(C)(=O)=O)c3c2c2ncc(-c4c(C)nnn4C)cc2n3C(c2ccccc2)C2CCC(F)(F)CC2)C1` (stereo not drawn) it was less than 0.01 µM. `Cc1nnn(C)c1-c1cnc2c3c(NCC(C)C)ncc(S(C)(=O)=O)c3n(C(c3ccccc3)C3CCC(F)(F)CC3)c2c1` (stereo not drawn): the IC50 is less than 0.01 µM. Consider `Cc1nnn(C)c1-c1cnc2c3c(NC(C)C)ncc(S(C)(=O)=O)c3n(C(c3ccccc3)C3CCC(F)(F)CC3)c2c1` (stereo not drawn), for which the IC50 is less than 0.01 µM. As for `CNCCN(C)c1ccc2c3ncc(-c4c(C)nnn4C)cc3n(C(c3ccccc3)C3CCC(F)(F)CC3)c2n1` (stereo not drawn), the IC50 is less than 0.01 µM.
